What was measured:
Type in all cases: cell-based, human
[1] = test system: hESC-derived neural precursors; assay: Immunostaining for Olig-2 and Isl-1 after early neural induction and 3 weeks treatment; settings: treatment for 3 weeks
Method: To develop spheres enriched for neural precursors, hESC colonies were removed intact from the feeders, 6 days after passage, with collagenase IV. They were cultured in low adherent culture dishes (HydroCell) in DMEM/F12 (1:1) basal medium (Invitrogen), supplemented with 2% B27, 2 mM glutamine, 50 units/ml penicillin, 50 μg/ml streptomycin (all from Invitrogen), and 20 ng/ml rh-FGF-2 (Peprotech). In some experiments the medium was also supplemented with noggin 600-700 ng/ml (both from R&D) for 14-16 days. […] The medium was further supplemented with 1 μM retinoic acid (“RA”; Sigma) or 0.5 μM purmorphamine (“Pur”; a hedgehog agonist; Merck), or combination of Pur and RA, for 3 weeks. The following primary antibodies were used: polyclonal rabbit anti Isl1 (1:750, Abeam), mouse anti HB9 (1:50, DSHB), polyclonal goat anti CHAT (1:200, R&D), and goat anti olig2 (1:75, R&D). The following secondary antibodies: goat anti-rabbit conjugated to Cy-3 (1:1000, Jackson), goat anti-mouse conjugated to Cy-3 (1:500, Jackson), donkey anti goat conjugated to rhodamin (1:300, Jackson), Texas red or Alexa 488-conjugated goat anti-mouse IgM (1:100, Jackson), goat anti-rabbit IgG (1:100, Molecular Probes), goat anti-mouse IgG (1:100, Molecular Probes) or donkey anti-goat IgG (1:250, Jackson) were used as secondary antibodies, where appropriate.

hESC clusters = assay: Early neural induction of hESC clusters (PSA-NCAM expression); settings: chemically defined medium with FGF2 with or without noggin, two weeks
Method: (§1) To develop spheres enriched for neural precursors, hESC colonies were removed intact from the feeders, 6 days after passage, with collagenase IV. They were cultured in low adherent culture dishes (HydroCell) in DMEM/F12 (1:1) basal medium (Invitrogen), supplemented with 2% B27, 2 mM glutamine, 50 units/ml penicillin, 50 μg/ml streptomycin (all from Invitrogen), and 20 ng/ml rh-FGF-2 (Peprotech). In some experiments the medium was also supplemented with noggin 600-700 ng/ml (both from R&D) for 14-16 days.
To induce the differentiation of hESCs towards motor neurons, hESC clusters were initially cultured in chemically defined medium supplemented with FGF2 with or without noggin for two weeks. At the end of this culture period the clusters acquired round morphology typical of neural spheres.

[2] = test system: hESC-derived neural precursors; assay: Immunostaining for HB9 after 1 week RA, 3 weeks treatment and 4-6 weeks maturation in MNM; settings: RA 1 week, then 3 weeks treatment, then maturation 4-6 weeks in MNM
Method: (§2) Alternatively, the spheres were cultured in the same medium supplemented with 1 μM RA (Sigma) for 1 week. Followed by further culturing the spheres in neurobasal medium (Invitrogen) supplemented with 2 mM L-glutamine (Invitrogen), 50 units/ml penicillin (Invitrogen), 50 μg/ml streptomycin (Invitrogen), 1% non-essential amino-acids (Invitrogen), N2 (Invitrogen), 1 μM db-cAMP (Sigma) and 1 μM RA (Sigma), or 0.5 μM Pur (Merck), or combination of RA and Pur, for 2-3 weeks.
(§3) The spheres were then further cultured in the same neurobasal medium supplemented with 2 mM L-glutamine, 50 units/ml penicillin, 50 μg/ml streptomycin, 1% non-essential amino-acids, 1% N2 (all from Invitrogen), 1 μM db-cAMP and 10 ng/ml of BDNF, GDNF and IGF-I (all from Peprotech). This medium was designated as motor neuron medium (MNM). The clusters could be cultured in suspension in this medium for prolonged periods (5 months). At various time points along this period the cells were plated on 10 μg/ml Poly-D-Lysine (Sigma) and 5 μg/ml laminin (Sigma) for terminal differentiation in the presence or absence of the γ-secretase inhibitor [N-(3,5-Difluorophenacetyl)-L-alanyl]-S-phenylglycine t-butyl ester (DAPT; 1 μM, Sigma).
The following primary antibodies were used: polyclonal rabbit anti Isl1 (1:750, Abeam), mouse anti HB9 (1:50, DSHB), polyclonal goat anti CHAT (1:200, R&D), and goat anti olig2 (1:75, R&D). […]

[3] = test system: hESC-derived neural precursors; assay: RT-PCR of Olig2, Ngn2 and HB9 transcripts after early neural induction and 2-3 weeks treatment
Method: as §1
The medium was further supplemented with 1 μM retinoic acid (“RA”; Sigma) or 0.5 μM purmorphamine (“Pur”; a hedgehog agonist; Merck), or combination of Pur and RA, for 3 weeks.
Total RNA was extracted from free-floating clusters after 2 and 3 weeks of treatment with RA, Pur or both. Total RNA was isolated using TRI-reagent (Sigma) followed by treatment with RNase-free DNase (Ambion). cDNA synthesis was carried out using Moloney murine leukemia virus (M-MLV) reverse transcriptase and random primers, according to the manufacturers' instructions (Promega). To analyze relative expression of different mRNAs, the amount of cDNA was normalized based on the signal from GAPDH mRNA. PCR was carried out using standard protocols with Taq DNA Polymerase (Promega). Amplification conditions were as follows: denaturation at 94° C. for 30 seconds, annealing at 55° C. for 30 seconds, and extension at 72° C. for 45 seconds. The number of cycles varied between 30 and 40, depending on particular mRNA abundance. Primer sequences (forward and reverse 5′-3′) were as shown in Table 1 (sequence identification number (SEQ ID NO.) according to the Sequence Listing is also provided):
Following this initial induction of early neural differentiation, the role of purmorphamine (Pur) and retinoic acid (RA) in further specification towards a caudal and ventral fate was examined. The neural precursors were further cultured 2-3 weeks with Pur, RA, or the combination of RA & Pur as well as with FGF2 as a control. Caudalization and ventralization were studied by analyzing the expression of Olig-2, Ngn2 and HB9 transcripts (FIGS. 2A, 2B and 2C). […] Without being bound by theory, induction of expression of these transcription factors by RA after 3 weeks (lane 6 in FIGS. 2A and 2C) may be related to RA-mediated induction of endogenous SHH gene expression.

[4] = test system: hESC-derived neural spheres; assay: Olig-2, HB9 and CHAT expression after caudalization, ventralization and maturation in MNM
Method: as §2, §3
(§4) The following primary antibodies were used: polyclonal rabbit anti Isl1 (1:750, Abeam), mouse anti HB9 (1:50, DSHB), polyclonal goat anti CHAT (1:200, R&D), and goat anti olig2 (1:75, R&D).
(§5) The following secondary antibodies: goat anti-rabbit conjugated to Cy-3 (1:1000, Jackson), goat anti-mouse conjugated to Cy-3 (1:500, Jackson), donkey anti goat conjugated to rhodamin (1:300, Jackson), Texas red or Alexa 488-conjugated goat anti-mouse IgM (1:100, Jackson), goat anti-rabbit IgG (1:100, Molecular Probes), goat anti-mouse IgG (1:100, Molecular Probes) or donkey anti-goat IgG (1:250, Jackson) were used as secondary antibodies, where appropriate.
In a similar set of experiments, after initial early neural induction in the presence of FGF2, the spheres were induced to take a caudal fate by 7 days treatment with RA. […]

[5] = test system: hESC-derived neural progenitors with caudal and ventral specification; assay: Terminal motor neuron differentiation of plated spheres in the presence of DAPT (HB9, CHAT immunostaining)
Method: as §3, §4, §5
To further enhance the motor neuron differentiation, caudalization and ventralization were followed by blocking Notch signaling with the γ-secretase inhibitor DAPT. After 2-3 weeks of maturation in MNM, the spheres were plated on laminin and terminally differentiated in the presence of DAPT for 7-10 days.

[6] = RA 7 days, Pur with or without RA 2-3 weeks, 4 weeks maturation in MNM, plated on laminin, no DAPT
[7] = DAPT 1 μM for 7-10 days after 2-3 weeks maturation in MNM, plated on laminin

Compound | cells expressing Isl-1 [1] | cells expressing Olig-2 [1] | neural precursor cells expressing PSA-NCAM within the clusters (hESC clusters) | cells expressing HB9 protein [2] | expression of HB9 transcripts ([3]; after 2 weeks of treatment) | expression of Ngn2 transcripts ([3]; after 2 weeks of treatment) | expression of Olig-2 transcripts ([3]; after 2 weeks of treatment) | expression of HB9 transcripts ([3]; after 3 weeks of treatment) | expression of Ngn2 transcripts ([3]; after 3 weeks of treatment) | expression of Olig-2 transcripts ([3]; after 3 weeks of treatment) | cells within the spheres expressing Olig-2 ([4]; 7 days RA, then Pur in the presence or absence of RA for 2-3 weeks) | cells expressing CHAT [4, 6] | cells expressing HB9 [4, 6] | increase of percentage of HB9+ cells [5, 7] | percentage of HB9+ cells [5, 7] | neurite outgrowth and branching from CHAT expressing cells ([5]; DAPT during terminal differentiation)
FGF2: basic fibroblast growth factor, used for early neural induction and as control treatment | not expressed | did not induce the expression | highly enriched | not expressed | did not induce the expression | did not induce the expression | did not induce the expression | did not induce the expression | did not induce the expression | did not induce the expression |  |  |  |  |  | 
c1ccc2c(Oc3nc(Nc4ccc(N5CCOCC5)cc4)c4ncn(C5CCCCC5)c4n3)cccc2c1 [Pur, purmorphamine] |  |  |  | 66 % of total cells | induced the expression |  | induced the expression | induced the expression |  | induced the expression | 23-54 % of the cells | 20-50 % of the cells | 20-50 % of the cells |  |  | 
C[C@H](NC(=O)Cc1cc(F)cc(F)c1)C(=O)N[C@H](C(=O)OC(C)(C)C)c1ccccc1 [DAPT, [N-(3,5-Difluorophenacetyl)-L-alanyl]-S-phenylglycine t-butyl ester] |  |  |  |  |  |  |  |  |  |  |  |  |  | 1.5-2 folds | 40-70 % of total cells | significantly augmented

From patent US8735149B2, “Motor neurons developed from stem cells” (Hadasit Medical Research Services & Development Limited, priority 2008, dated 2014)
